Activity calls are given as the source filed them. No cut-off for these calls is given here.
Tests used:
in vitro [1] = details: human, microsomes
Description: Metabolic stability in human liver microsomes assessed as total metabolism

in vitro [2] = details: mouse, microsomes
Description: Metabolic stability in mouse microsomes assessed as total metabolism

in vitro [3] = details: rat, microsomes
Description: Metabolic stability in rat microsomes assessed as total metabolism

physchem = details: buffer, pH 7.4
Description: Lipophilicity, logD of the compound in phosphate buffer at pH 7.4

MCF7 [4] = type: functional, Homo sapiens; details: at 25 mg/kg
Description: Antitumor activity against tamoxifen-sensitive human MCF7 cells xenografted in 17-beta-estradiol pellets implanted nu/nu mouse assessed as tumor regression at 25 mg/kg, po administered bid daily and monitored for biweekly

MCF7 [5] = details: Homo sapiens
Description: Antitumor activity against tamoxifen-sensitive human MCF7 cells xenografted in 17-beta-estradiol pellets implanted nu/nu mouse assessed as reduction in tumor growth at 2.5 to 12.5 mg/kg, po administered bid daily and monitored for biweekly

in vivo [6] = details: rat, iv, 3 mg/kg
Description: Volume of distribution at steady state in rat at 3 mg/kg, iv or 10 mg/kg, po

in vivo [7] = details: rat, iv, 3 mg/kg; remark: listed apart in the source
Description: Clearance in rat at 3 mg/kg, iv or 10 mg/kg, po

in vivo [8] = details: rat, po, 10 mg/kg
in vivo [9] = details: rat
Description: Half life in rat at 3 mg/kg, iv or 10 mg/kg, po

in vivo [10] = details: mouse, iv, 3 mg/kg
Description: Volume of distribution at steady state in mouse at 3 mg/kg, iv or 10 mg/kg, po

in vivo [11] = details: mouse, iv, 3 mg/kg; remark: listed apart in the source
Description: Clearance in mouse at 3 mg/kg, iv or 10 mg/kg, po

in vivo [12] = details: mouse, po, 10 mg/kg
in vivo [13] = details: mouse
Description: Half life in mouse at 3 mg/kg, iv or 10 mg/kg, po

in vivo [14] = details: dog, iv, 3 mg/kg
Description: Volume of distribution at steady state in dog at 3 mg/kg, iv or 10 mg/kg, po

in vivo [15] = details: dog, iv, 3 mg/kg; remark: listed apart in the source
Description: Clearance in dog at 3 mg/kg, iv or 10 mg/kg, po

in vivo [16] = details: dog, po, 10 mg/kg
in vivo [17] = details: dog
Description: Half life in dog at 3 mg/kg, iv or 10 mg/kg, po
Throughout, for T/C: time not given here.

Row | Compound | metabolised (in vitro [1]) [%] | metabolised (in vitro [2]) [%] | metabolised (in vitro [3]) [%] | logD (physchem) | other results
1 | O=C(O)c1ccc2c(c1)CCCC(c1cccc(F)c1Cl)=C2c1ccc(O[C@H]2CCN(CCCF)C2)cc1 | 28 | 0 | 2 | 2.59 | –
2 | O=C(O)c1ccc2c(c1)CCCC(c1ccccc1Cl)=C2c1ccc(O[C@H]2CCN(CCCF)C2)cc1 | 0 | 5 | 4 | 2.63 | –
3 | O=C(O)c1ccc2c(c1)CCCC(c1ccc(Cl)cc1Cl)=C2c1ccc(O[C@H]2CCN(CCCF)C2)cc1 [AMCENESTRANT] | 12 | 13 | 4 | 3.25 | T/C (MCF7 [4]): -28%; TGI (MCF7 [5]): Active; Vd (in vivo [6]): 0.83 L/kg; clearance (in vivo [7]): 3.17 mL/min/kg; bioavailability (in vivo [8]): 76%; half-life (in vivo [9]): 4.13 h; Vd (in vivo [10]): 6.1 L/kg; clearance (in vivo [11]): 32 mL/min/kg; bioavailability (in vivo [12]): 62%; half-life (in vivo [13]): 1.98 h; Vd (in vivo [14]): 0.5 L/kg; clearance (in vivo [15]): 0.5 mL/min/kg; bioavailability (in vivo [16]): 54%; half-life (in vivo [17]): 9.8 h
4 | O=C(O)c1ccc2c(c1)CCCC(c1ccc(SC(F)(F)F)cc1)=C2c1ccc(O[C@H]2CCN(CCCF)C2)cc1 | 10 | 12 | 4 | 3.46 | –
5 | Oc1ccc2c(c1)CCCC(c1cccnc1)=C2c1ccc(O[C@H]2CCN(CCCF)C2)cc1 | 70 | 31 | 80 | 2.11 | –
6 | Oc1ccc2c(c1)CCCC(c1ccc3[nH]ncc3c1)=C2c1ccc(O[C@H]2CCN(CCCF)C2)cc1 | 72 | 65 | 74 | 2.35 | –
7 | O=C(O)c1ccc2c(c1)CCCC(c1ccc(Cl)cc1)=C2c1ccc(O[C@H]2CCN(CCCF)C2)cc1 | 2 | 15 | 1 | 2.9 | –
8 | O=C(O)c1ccc2c(c1)CCCC(c1ccc(OC(F)(F)F)cc1)=C2c1ccc(O[C@H]2CCN(CCCF)C2)cc1 | 20 | 10 | 2 | 3.43 | –
9 | Oc1ccc(C2=C(c3ccc(O[C@H]4CCN(CCCF)C4)cc3)c3cc(O)ccc3CCC2)cc1 | 49 | 55 | 58 | – | –

Now from value to compound, other results behind:

Row | metabolised (in vitro [1]) [%] | metabolised (in vitro [2]) [%] | metabolised (in vitro [3]) [%] | logD (physchem) | Compound | other results
10 | 34 | 44 | 53 | 4 | Oc1ccc2c(c1)CCCC(c1ccccc1)=C2c1ccc(O[C@H]2CCN(CCCF)C2)cc1 | –
11 | 70 | 39 | 60 | 2.11 | Oc1ccc2c(c1)CCCC(c1ccncc1)=C2c1ccc(O[C@H]2CCN(CCCF)C2)cc1 | –
12 | 30 | 18 | 17 | 5.27 | Oc1ccc2c(c1)CCCC(c1ccc(Cl)cc1Cl)=C2c1ccc(O[C@H]2CCN(CCCF)C2)cc1 | –
13 | 31 | 20 | 44 | 4.59 | Oc1ccc2c(c1)CCCC(c1ccc(F)cc1Cl)=C2c1ccc(O[C@H]2CCN(CCCF)C2)cc1 | –
14 | 37 | 41 | 45 | 4.32 | Oc1ccc2c(c1)CCCC(c1cccc(Cl)c1F)=C2c1ccc(O[C@H]2CCN(CCCF)C2)cc1 | –
15 | 55 | 25 | 48 | – | Oc1ccc(C2=C(c3ccc(O[C@H]4CCN(CCCF)C4)cc3)c3ccc(O)cc3CCC2)cc1 | –
16 | 39 | 61 | 75 | 3.49 | Oc1ccc2c(c1)CCCC(c1ccc3[nH]ccc3c1)=C2c1ccc(O[C@H]2CCN(CCCF)C2)cc1 | –
17 | 57 | 30 | 80 | – | Oc1ccc2c(c1)C(c1ccc(O[C@H]3CCN(CCCF)C3)cc1)=C(c1ccc(F)cc1Cl)CCC2 | –
18 | 41 | 31 | 53 | 4.11 | Oc1ccc2c(c1)CCCC(c1ccccc1Cl)=C2c1ccc(O[C@H]2CCN(CCCF)C2)cc1 | –

From ChEMBL document CHEMBL4321847, “Discovery of 6-(2,4-Dichlorophenyl)-5-[4-[(3S)-1-(3-fluoropropyl)pyrrolidin-3-yl]oxyphenyl]-8,9-dihydro-7H-benzo[7]annulene-2-carboxylic acid (SAR439859), a Potent and Selective Estrogen Receptor Degrader (SERD) for the Treatment of Estrogen-Receptor-Positive Breast Cancer” (J Med Chem, 2020)
